Measured values: patent publication US4278675A, “Bronchodilating process” (Bristol-Myers Company, priority 1979, dated 1981)
Values after ≈ are worked out from the molar mass of the structure shown. Like-named read-outs stand apart in the source and are kept apart here. Blank lines part the entries; values can stand above or below the compound they belong to.

How the values were obtained:
[1] = tested on: Tracheal chains of guinea pig; experiment: In vitro bronchodilator activity, tracheal chains of guinea pig (Magnus method); type: cell-based; settings: Cavia porcellus, relative to 0.1 mcg./ml. isoproterenol, read-out: EC50 (concentration producing a relaxation which is 50% of the maximum response to 0.1 mcg./ml. of isoproterenol)
Description: Tracheal chains of guinea pig were prepared by the method of A. Akcasu, Arch. Int. Pharmcodyn. […] The response to each test compound was recorded by the Magnus method and expressed as a percentage of the maximum response obtained with 0.1 mcg./ml. of isoproterenol prior to each experiment.

[2] = tested on: intratracheal pressure (ITP) in the guinea pig; experiment: In vivo bronchodilator activity: decrease in intratracheal pressure (ITP) in anesthetized guinea pig; settings: Cavia porcellus, intravenous, read-out: ITP ED50 (dose resulting in a 50% decrease in intratracheal pressure)
Description: (§1) The trachea of anesthetized guinea pig was cannulated and the ITP recorded on a polygraph under artificial ventilation. Arterial blood pressure (ABP; reflecting hypotensive activity) was also measured during the experiment. Either intravenous or intraduodenal routes of administration are used. […] The ratio of hypotensive ED20 /bronchodilating ED50 reflects an assessment of the separation of desirable bronchodilator activity from undesirable cardiovascular (hypotensive) effect in the compounds. The larger the ABP/ITP ratio, the greater separation of bronchodilator activity and hypotensive side effect.

[3] = tested on: Arterial blood pressure (ABP); experiment: In vivo hypotensive activity: arterial blood pressure (ABP) in anesthetized guinea pig; settings: intravenous; for ABP ED20 (dose which reduces arterial blood pressure by 20%): anesthetized guinea pig, hypotensive activity; for Ratio ABP/ITP (hypotensive ED20/bronchodilating ED50): guinea pig, larger ratio = greater separation of bronchodilator activity and hypotensive side effect
Description: as §1

[4] = prior art (U.S. Pat. No. 3,930,005), cited from earlier work

EC50 [1]: 0.34 µg/mL (≈ 1.2 µM)
SMILES: CCCOc1nc(N)c2ncn(Cc3ccccc3)c2n1 [9-Benzyl-2-n-propoxy-9H-adenine]
ED50 [2]: 0.83 mg/kg | ABP ED20 (dose which reduces arterial blood pressure by 20%) [3]: 1.7 mg/kg | Ratio ABP/ITP (hypotensive ED20/bronchodilating ED50) [3]: 2.0

EC50 [1]: 0.91 µg/mL (≈ 4.19 µM)
SMILES: Nc1ncnc2c1ncn2C1CCCCC1 [9-Cyclohexyl-9H-adenine, 9-cyclohexyl-9H-adenine]
anti-inflammatory activity ([4]; listed as 9-cyclohexyl-9H-adenine): no activity or activity of no practical value | anti-inflammatory activity ([4]; listed as drawing 2): relatively inactive | ED50 [2]: 0.24 mg/kg | ABP ED20 (dose which reduces arterial blood pressure by 20%) [3]: > 3 mg/kg | Ratio ABP/ITP (hypotensive ED20/bronchodilating ED50) [3]: > 1.2

SMILES: Cn1c(=O)c2[nH]cnc2n(C)c1=O [Aminophylline, reference compound]
ABP ED20 (dose which reduces arterial blood pressure by 20%) [3]: 1.4 mg/kg
